Columns and labels:
c-kit kinase = c-kit kinase (Homo sapiens (Human), UniProt P10721); test: c-Kit biochemical assay (AlphaScreen); conditions: c-kit biochemical inhibitory activity
Experimental: Assays for biochemical cell-based activity of c-kit kinase are known in the art, for example, as described in U.S. Pat. Nos. 7,498,342 and 7,846,941, the disclosures of which are hereby incorporated by reference as it relates to such assays. The c-kit (or kinase domain thereof) is an active kinase in AlphaScreen. IC50 values are determined with respect to inhibition of c-Kit kinase activity, where inhibition of phosphorylation of a peptide substrate is measured as a function of compound concentration. Compounds to be tested were dissolved in DMSO to a concentration of 20 mM. These were diluted 30 μl into 120 μl of DMSO (4 mM) and 1 μl was added to an assay plate. These were then serially diluted 1:3 (50 μl to 100 μl DMSO) for a total of 8 points. Plates were prepared such that each kinase reaction is 20 μl in 1× kinase buffer (50 mM HEPES, pH 7.2, 5 mM MgCl2, 5 mM MnCl2, 0.01% NP-40, 0.2% BSA), 5% DMSO and 10 µM ATP. Substrate was 100 nM biotin-(E4Y)3 (Open Source Biotech, Inc.). C-kit kinase was at 0.1 ng per sample. After incubation of the kinase reaction for 1 hour at room temperature, 5 μl of donor beads (Streptavidin coated beads (Perkin Elmer Life Science) final concentration 1 μg/ml) in stop buffer (50 mM EDTA in 1× kinase buffer) was added, the sample was mixed and incubated for 20 minutes at room temperature before adding 5 μl of acceptor beads (PY20 coated beads (Perkin Elmer Life Science) final concentration 1 μg/ml) in stop buffer. The samples were incubated for 60 minutes at room temperature and the signal per well was read on AlphaQuest reader. Phosphorylated substrate results in binding of the PY20 antibody and association of the donor and acceptor beads such that signal correlates with kinase activity. The signal vs. compound concentration was used to determine the IC50.
Compounds were also tested using a similar assay with a 10-fold higher ATP concentration. For these samples, compounds to be tested were dissolved in DMSO to a concentration of 20 mM. These were diluted 30 μl into 120 μl of DMSO (4 mM) and 1 μl was added to an assay plate. These were then serially diluted 1:3 (50 μl to 100 μl DMSO) for a total of 8 points. Plates were prepared such that each kinase reaction is 20 μl in 1× kinase buffer (25 mM HEPES, pH 7.5, 2 mM MgCl2, 2 mM MnCl2, 0.01% Tween-20, 1 mM DTT, and 0.001% BSA), 5% DMSO and 100 µM ATP. Substrate was 30 nM biotin-(E4Y)10 (Upstate Biotech, Cat#12-440). C-kit kinase was at 1 ng per sample. After incubation of the kinase reaction for 1 hour at room temperature, 5 μl of donor beads (Streptavidin coated beads (Perkin Elmer Life Science) final concentration 10 μg/ml) in stop buffer (25 mM HEPES pH 7.5, 100 mM EDTA, 0.3% BSA) was added, the sample was mixed and incubated for 20 minutes at room temperature before adding 5 μl of acceptor beads (PY20 coated beads (Perkin Elmer Life Science) final concentration 10 μg/ml) in stop buffer. The samples were incubated for 60 minutes at room temperature and the signal per well was read on AlphaQuest or Envision reader (Perkin Elmer Life Science). Phosphorylated substrate results in binding of the PY20 antibody and association of the donor and acceptor beads such that signal correlates with kinase activity. The signal vs. compound concentration was used to determine the IC50.
The c-kit enzyme used in the above assay was either obtained from Cell Signaling Technology (Cat. #7754) or was prepared as follows: A plasmid encoding kit (DNA and encoded protein sequences shown below) was engineered using common polymerase chain reaction (PCR) methods. Complementary DNA cloned from various human tissues were purchased from Invitrogen, and these were used as substrates in the PCR reactions. Specific custom synthetic oligonucleotide primers were designed to initiate the PCR product, and also to provide the appropriate restriction enzyme cleavage sites for ligation with the plasmids. […]

[1] = system: BaF3-FL KIT D816V or BaF3-FL KIT V560G/D816V cell line; test: Cell-based assays of c-Kit mutant kinase activity (cell growth, ATPlite); conditions: at least one of the c-kit cell assays of Example 26
How it was run: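 BaF3 cells dependent on full-length human KIT (D816V or V560G/D816V) seeded at 1×10^4 cells/well in RPMI with 10% FBS. Eight-point 1:3 dilutions from 10 μM top final (0.2% DMSO), 3 days at 37° C., 5% CO2. ATPlite luminescence gave IC50.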

c-kit mutant D816V = c-kit mutant D816V (Homo sapiens (Human), UniProt P10721, D816V/DEL694-753); test: c-Kit mutant D816V biochemical assay (AlphaScreen); conditions: c-kit D816V biochemical inhibitory activity
Experimental: The c-kit mutant D816V (or kinase domain thereof) is an active kinase in AlphaScreen. IC50 values are determined with respect to inhibition of c-Kit mutant D816V kinase activity, where inhibition of phosphorylation of a peptide substrate is measured as a function of compound concentration. Compounds to be tested were dissolved in DMSO to a concentration of 20 mM. These were diluted 30 μl into 120 μl of DMSO (4 mM) and 1 μl was added to an assay plate. These were then serially diluted 1:3 (50 μl to 100 μl DMSO) for a total of 8 points. Plates were prepared such that each kinase reaction is 20 μl in 1× kinase buffer (25 mM HEPES, pH 7.2, 8 mM MgCl2, 2 mM MnCl2, 50 mM NaCl, 0.01% Brij, 1 mM DTT, 0.01% BSA), 5% DMSO and 10 μM ATP. Substrate was 30 nM biotin-(E4Y)10 (EMD Millipore, Cat#12-440). C-kit mutant D816V kinase was at 0.75 ng per sample. After incubation of the kinase reaction for 30 minutes at room temperature, 5 μl of donor beads (Streptavidin coated beads (Perkin Elmer Life Science) final concentration 7.5 μg/ml) in stop buffer (25 mM Hepes pH 7.5, 100 mM EDTA, 0.01% BSA) was added, the sample was mixed and incubated for 20 minutes at room temperature before adding 5 μl of acceptor beads (PY20 coated beads (Perkin Elmer Life Science) final concentration 7.5 ug/ml) in stop buffer. The samples were incubated for 60 minutes at room temperature and the signal per well was read on EnVision reader. Phosphorylated substrate results in binding of the PY20 antibody and association of the donor and acceptor beads such that signal correlates with kinase activity. The signal vs. compound concentration was used to determine the IC50.
Recombinant c-kit mutant D816V (residues 551-934, kinase insertion domain residues 694-753 deleted) with a 6x-histidine N-terminal tag was expressed in E. coli Arctic Express (DE3) RIL (Stratagene). Cells were grown in Terrific Broth (TB) media to an OD600 of 0.6 at 37° C. at which temperature was reduced to 10° C., protein was induced with 1.0 mM IPTG for 18 hours and harvested by centrifugation at 8000×g for 20 minutes. Cells were re-suspended in 0.1M KPO4 pH 8.0, 250 mM NaCl, 10% Glycerol, 0.75% NP-40, 25 mM Imidazole, 5 mM BME with 0.2 mg/ml Lysosyme, 2.0 mM PMSF, 25 μg/ml DNAse I, incubated in ice for 30 minutes and lyzed with a cell disruptor (MicroFluidics). The lysate was clarified by centrifugation at 20,000×g for 2 hours. The protein was captured with Talon resin (Clontech). Contaminating proteins were washed off with 25 mM Tris-HCl pH 8.3, 250 mM NaCl, 15% Glycerol, 1% Triton X-100, and protein eluted using 100 mM EDTA. The protein was further purified using Gel Filtration column 26/600 Superdex 200 (GE) in 50 mM Tris-HCl, pH 8.0, 250 mM NaCl, 15% Glycerol, 5 mM BME. The protein was aliquoted and flash-frozen in liquid Nitrogen.

c-kit kinase, sequence (P10721 26-976): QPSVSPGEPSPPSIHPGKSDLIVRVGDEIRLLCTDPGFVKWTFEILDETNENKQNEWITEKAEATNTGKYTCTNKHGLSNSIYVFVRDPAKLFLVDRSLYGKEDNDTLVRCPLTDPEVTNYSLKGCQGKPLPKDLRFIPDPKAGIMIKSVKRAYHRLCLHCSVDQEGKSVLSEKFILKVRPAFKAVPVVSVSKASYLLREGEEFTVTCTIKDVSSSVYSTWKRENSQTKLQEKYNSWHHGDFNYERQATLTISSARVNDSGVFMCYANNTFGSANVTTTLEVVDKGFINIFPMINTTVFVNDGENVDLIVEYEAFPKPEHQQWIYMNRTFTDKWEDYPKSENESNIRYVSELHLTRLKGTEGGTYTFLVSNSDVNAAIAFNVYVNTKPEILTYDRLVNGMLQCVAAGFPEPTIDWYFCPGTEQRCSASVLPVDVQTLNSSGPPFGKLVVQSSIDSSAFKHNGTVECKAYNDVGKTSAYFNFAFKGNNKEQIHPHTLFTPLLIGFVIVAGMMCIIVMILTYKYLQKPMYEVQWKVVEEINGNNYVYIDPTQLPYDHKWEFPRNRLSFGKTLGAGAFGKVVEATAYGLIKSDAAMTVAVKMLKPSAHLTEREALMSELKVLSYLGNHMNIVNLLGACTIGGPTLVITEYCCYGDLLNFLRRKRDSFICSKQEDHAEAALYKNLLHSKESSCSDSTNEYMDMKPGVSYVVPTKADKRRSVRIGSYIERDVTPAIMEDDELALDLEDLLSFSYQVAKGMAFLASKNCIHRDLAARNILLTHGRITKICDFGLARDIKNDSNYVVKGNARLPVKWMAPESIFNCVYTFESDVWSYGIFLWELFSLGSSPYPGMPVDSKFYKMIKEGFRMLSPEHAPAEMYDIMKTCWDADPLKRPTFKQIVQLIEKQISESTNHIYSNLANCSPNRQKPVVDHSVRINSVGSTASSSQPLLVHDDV
c-kit mutant D816V, sequence (P10721 other isoform, or with tags, fused parts or gaps D816V/del 694-753): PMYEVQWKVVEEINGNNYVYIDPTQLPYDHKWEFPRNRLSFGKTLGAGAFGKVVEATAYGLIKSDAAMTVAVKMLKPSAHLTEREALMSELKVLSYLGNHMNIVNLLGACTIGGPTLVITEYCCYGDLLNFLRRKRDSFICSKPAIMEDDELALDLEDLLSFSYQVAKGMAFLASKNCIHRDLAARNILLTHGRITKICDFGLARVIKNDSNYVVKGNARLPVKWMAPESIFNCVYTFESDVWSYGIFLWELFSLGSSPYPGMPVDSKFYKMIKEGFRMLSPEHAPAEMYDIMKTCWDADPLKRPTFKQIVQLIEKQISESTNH

Compound	IC50 (c-kit kinase) [µM]	IC50 [1] [µM]	IC50 (c-kit mutant D816V) [µM]
Cc1n[nH]c(C(=O)Nc2cnc3[nH]c(-c4ccc(F)c(C)c4C)cc3c2)c1C [P-2279, N-[2-(4-fluoro-2,3-dimethyl-phenyl)-1H-pyrrolo[2,3-b]pyridin-5-yl]-3,4-dimethyl-1H-pyrazole-5-carboxamide]	10 to 200	< 10	
NC(=O)c1cccc(C(=O)Nc2cnc3[nH]c(-c4ccc(F)cc4)cc3c2)c1 [P-2020, N3-[2-(4-fluorophenyl)-1H-pyrrolo[2,3-b]pyridin-5-yl]benzene-1,3-dicarboxamide]	1 to 10	< 10	
O=S(=O)(Nc1cnc2[nH]c(-c3ccccc3)cc2c1)c1cn[nH]c1 [P-2018]	10 to 200		10 to 200
O=C(Nc1cnc2[nH]c(-c3ccccc3)cc2c1)c1n[nH]c2ccc(F)cc12 [P-2010, 5-fluoro-N-(2-phenyl-1H-pyrrolo[2,3-b]pyridin-5-yl)-1H-indazole-3-carboxamide]	10 to 200		10 to 200
Cc1cc2cc(NC(=O)c3cccc4n[nH]cc34)cnc2[nH]1 [P-2301, N-(2-methyl-1H-pyrrolo[2,3-b]pyridin-5-yl)-2H-indazole-4-carboxamide]	10 to 200	< 10	

Source: patent publication US10301280B2 (Plexxikon Inc., priority 2012, dated 2019)
